Positions of bridges follow the written chain, without caps; N, C: chain ends. Non-standard residues stand in square brackets, D forms with d. Residues, ends and D or L forms follow the SMILES beside them. Chains are numbered I, II in the order given. Gly(N-piperonyl) = O=C(O)CNCc1ccc2c(c1)OCO2; N(4-MeOBn)Gly = COc1ccc(CNCC(=O)O)cc1; Nrpe = C[C@@H](NCC(=O)O)c1ccccc1; Nlys = NCCCCNCC(=O)O
What was measured:
HCC4017 cells = assay: FACS binding assay; parameters: species or system human
Procedure: FACS binding assays were conducted to further quantify the binding event of the PPS1 monomer and PPS1D1 dimer.

[1] = Lipid ELISA-like binding assay
From the text: Structural features of PPS1and PS were compared to determine why PPS1 preferred PS over PC. PPS1 has three positive charged residues aligned together and a hydrophobic region with four consecutive aromatic rings (FIG. 9A). This can perfectly form both electrostatic and hydrophobic interactions with opposing negatively charged PS head groups and its hydrophobic tail regions.
One of the major questions arising at this point is how PPS1 or PPS1D1 specifically recognizes PS over PC, as both lipids have negatively charged phosphate head groups. To address this specificity concern, ELISA-like binding assay were expanded to include other membrane phospholipids such as phosphatidylethanolamine (PE), sphingomyelin (SM), phosphatidic acid (PA), phosphatidylinositol (PI) and phosphatidylglycerol (PG). […] This additional negative charge can be responsible for the interaction with the positively charged region of PPS1 or PPS1D1, while the hydrophobic regions of PPS1 or PPS1D1 may interact with hydrophobic tail groups of the lipids through van der Waals forces. […] The membrane was treated with biotin labeled PPS1D1 and binding was detected by immunoblotting with streptavidin-HRP. […] It has been reported that PS can form a bilayer lamellar and reverse hexagonal phase. PS is mainly in a lamellar phase after hydration at physiological pH. By validating our binding through an ELISA-like assay and liposomes, PPS1D1 has an equal opportunity to bind to each phase of PS.
Lipids (Avanti Polar Lipids) were dissolved in hexane at 10 μg/ml and coated on to Immulon 1B “U” bottom microtiter plates (ThermoFisher, MA). Hexane was evaporated at room temp (in the hood) and the plates were blocked with 200 μl of 1% BSA in PBS for 1 hour. Plates were washed with 3× PBS. […] Plates were washed with 5× PBS and binding was detected with streptavidin-HRP (1:2000 in blocking buffer) followed by 100 μl OPD (Sigma-Aldrich). The reaction was stopped with 100 μl 0.18M H2SO4 and absorbance was read at 490 nm using the spectrophotometer (Spectramax i3, Molecular Devices, CA).

[2] = tested on: HCC4017, H460, HCC95, H1693, H1395 lung cancer cell lines; assay: MTS cell viability assay on series of lung cancer cell lines; format: cell-based, human
From the text: In this current study, the target of PPS1D1 is PS and HCC4017 strongly expresses PS. Our next goal was to evaluate the level of PS externalization on other lung cancer cell lines and the activity profile of PPS1D1 on those cell lines. A variety of lung cancer cell lines HCC4017 (lung adenocarcinoma), H460 (large cell lung cancer), H1395 (lung adenocarcinoma), HCC95 (squamous cell lung carcinoma), H1993 (adenocarcinoma; non-small cell lung cancer), H1695 and HBEC30KT (normal bronchial epithelial cells) were treated with fluorescein-labeled Annexin V (FITC-Annexin V) and the bound fluorescein signal was detected using flow cytometry. […] Standard cell viability (MTS) assay by treating these cell lines with PPS1D1 (1 and 20 μM) and 20 μM of a control compound PC462D1 (FIG. 68) in 96-well plates were performed. […] PPS1D1 had no effect on normal HBEC30KT cells at either concentration.
HCC4017, H460, HCC95, H1693, H1395 and HBEC30KT cells were grown in clear bottom 96 well plates. On second day, lung cancer cells were treated with PPS1, PPS1D1 and control PC462D1 in RPMI medium with 10% FBS containing 3% BSA. HBEC30KT was treated with PPS1, PPS1D1 and control PC462D1 in KSFM media with 3% BSA.

MTD studies of PPS1D1 = assay: MTD studies of PPS1D1; parameters: species or system mice; details: mouse, in vivo
Procedure: […] (MTD) studies were performed by injecting PPS1D1 into mice. […] In vivo localization studies were performed with biotinylated versions of PPS1D1 and PC462D1. Animals were injected intravenously with 100 μL of biotinylated PPS1D1 or PC462D1 (500 μg/mL) and sacrificed at 1 and 4 h post injection. Tissue was collected, snap frozen, and sectioned and the presence of the PPS1D1 and PC462D1 determined by streptavidin-Cy3.

HCC4017 xenografts = assay: Tumor burden effect on HCC4017 xenografts; format: in vivo, mice; details: initial data, heterogeneous tumors
Procedure: The actual tumor burden effects of PPS1D1 on HCC4017 xenografts were studied. The study was planned with 4 groups. […] It took a long time to grow and created a very heterogeneous xenograft population. PPS1D1 treatment was performed, but due to the high heterogeneity of the tumors, most of the mice in every group had to be sacrificed as they reached the maximum allowed limits.

Procedure for H460 cells: Before moving to animal studies with PPS1D1, comprehensive validation of cytotoxic effect of PPS1D1 on H460 was performed (Fig: 13). The PS expression levels of H460 using FITC-Annexin V staining detected by FACS was checked. […] A magnetic bead pull down, cell proliferation assay, and flow cytometry were performed on the H460 cell line. PPS1D1 coated magnetic beads were incubated with the H460 cell line for 30 minutes. The supernatant was removed by immobilizing beads on side of the tube with a magnet. The number of cells bound to beads were counted with a hemocytometer. […] Cell proliferation assays on a H460 cell line were performed by treating them with PPS1D1, PPS1, and the control compound, PC462D1. […] Binding and cytotoxicity of fluoresceinated PPS1D1 was examined using flow cytometry. Efficiency of PPS1D1 cytotoxicity on H460 cancer cells at different concentrations with 1 hour incubation with PPS1D1 was examined. Assays were performed to determine whether there were cells that were double positive for FITC (bound to PPS1D1) and PI, to evaluate cell viability. […]
Experimental procedure 10: MTS viability assay on H460 cells. […] On day 5, 20 μl of CellTiter 96® AQueous One Solution Cell Proliferation Assay (Promega, Wis.) was added to each well and absorbance was measured at 490 nm using a plate reader 2 hours after treatment.

COc1ccc(CN(CC(=O)N(CCCCN)CC(=O)N[C@@H](CCCCN)C(=O)N[C@H](CCCCN)C(=O)N[C@@H](CCSC)C(=O)NCCCC[C@H](NC(=O)[C@H](CCSC)NC(=O)[C@@H](CCCCN)NC(=O)[C@H](CCCCN)NC(=O)CN(CCCCN)C(=O)CN(Cc2ccc(OC)cc2)C(=O)CN(C(=O)CN(Cc2ccc3c(c2)OCO3)C(=O)CN[C@H](C)c2ccccc2)[C@H](C)c2ccccc2)C(N)=O)C(=O)CN(C(=O)CN(Cc2ccc3c(c2)OCO3)C(=O)CN[C@H](C)c2ccccc2)[C@H](C)c2ccccc2)cc1 [PPS1D1] (I: H-[Nrpe][Gly(N-piperonyl)][Nrpe][N(4-MeOBn)Gly][Nlys]K[dK]MK-NH2 / II: H-[Nrpe][Gly(N-piperonyl)][Nrpe][N(4-MeOBn)Gly][Nlys]K[dK]M; amide I:9-II:C; N-terminus assumed)
improvement of binding of dimeric version over PPS1 (HCC4017 cells): about 175 fold | Kd (HCC4017 cells; FACS): 80 nM | binding to PA [1]: displayed binding | binding to PG [1]: displayed binding | binding to PI [1]: displayed binding | cytotoxicity on lung cancer cell lines ([2]; 1 μM): not at 1 μM | cytotoxicity on lung cancer cell lines ([2]; 20 μM): strong cytotoxicity | MTD (MTD studies of PPS1D1; mice bearing subcutaneous HCC4017 xenografts): 1 mg/kg | MTD (MTD studies of PPS1D1; nontumor bearing animals): 5 mg/kg | tumor growth (HCC4017 xenografts): capable of reducing the tumor growth | effect on H460 cells (H460 cells; MTS / cell proliferation, increasing concentrations): very potent in inhibiting growth | concentration at which most cytotoxicity was seen (H460 cells; cell proliferation assay, H460): ≥ 10 µM

— patent publication US10849875B2, “Cancer specific lipid targeted peptidomimetics” (University of Houston System, priority 2015, dated 2020)
